Results reported in the NIST ThermoML archive (doi:10.1021/je050402s).

Columns and labels:
[1] = 100.5 kPa, Liquid
[2] = xn = mol fraction of the nth substance listed; conditions: 100.5 kPa, Liquid, x2 = 0

CC(=O)OCc1ccccc1 [benzyl ethanoate]
[1]
Conditions	mass density [kg/m3]
288.15 K	1060.11
298.15 K	1050.75
308.15 K	1041.39
318.15 K	1032.03

[1], Capillary tube (Ostwald / Ubbelohde) method
Conditions	viscosity [mPa·s]
288.15 K	2.53
298.15 K	2.056
308.15 K	1.703
318.15 K	1.432

CCO [ethanol] + CCC(=O)OCc1ccccc1
[2], Capillary tube (Ostwald / Ubbelohde) method
Conditions	viscosity [mPa·s]
288.15 K	1.337
298.15 K	1.105
308.15 K	0.921
318.15 K	0.771

[2]
Conditions	mass density [kg/m3]
288.15 K	793.6
298.15 K	785
308.15 K	776.31
318.15 K	767.44

CCOC(=O)c1ccccc1O [ethyl 2-hydroxybenzoate]
[1]
Conditions	mass density [kg/m3]	viscosity [mPa·s]
288.15 K	1134.72	3.694
298.15 K	1125	2.831
308.15 K	1115.29	2.253
318.15 K	1105.6	1.842

CCO [ethanol] + CCOC(=O)CC(C)=O
[2], Capillary tube (Ostwald / Ubbelohde) method
Conditions	viscosity [mPa·s]
288.15 K	1.337
298.15 K	1.105
308.15 K	0.921
318.15 K	0.771

[2]
Conditions	mass density [kg/m3]
288.15 K	793.6
298.15 K	785
308.15 K	776.31
318.15 K	767.44

CCO [ethanol] + CCOC(=O)CC(C)C
[2], Capillary tube (Ostwald / Ubbelohde) method
Conditions	viscosity [mPa·s]
288.15 K	1.337
298.15 K	1.105
308.15 K	0.921
318.15 K	0.771

[2]
Conditions	mass density [kg/m3]
288.15 K	793.6
298.15 K	785
308.15 K	776.31
318.15 K	767.44

CCOC(=O)CC(C)C [ethyl 3-methylbutanoate]
[1]
Conditions	mass density [kg/m3]
288.15 K	869.66
298.15 K	859.78
308.15 K	849.83
318.15 K	839.81

[1], Capillary tube (Ostwald / Ubbelohde) method
Conditions	viscosity [mPa·s]
288.15 K	0.853
298.15 K	0.739
308.15 K	0.642
318.15 K	0.566

CCOC(=O)CC(C)=O [ethyl 3-oxobutanoate]
[1]
Conditions	mass density [kg/m3]
288.15 K	1033.92
298.15 K	1023.45
308.15 K	1013
318.15 K	1002.54

[1], Capillary tube (Ostwald / Ubbelohde) method
Conditions	viscosity [mPa·s]
288.15 K	1.902
298.15 K	1.581
308.15 K	1.344
318.15 K	1.144

CCO [ethanol]
[1]
Conditions	mass density [kg/m3]
288.15 K	793.6
298.15 K	785
308.15 K	776.31
318.15 K	767.44

[1], Capillary tube (Ostwald / Ubbelohde) method
Conditions	viscosity [mPa·s]
288.15 K	1.337
298.15 K	1.105
308.15 K	0.921
318.15 K	0.771

CCO [ethanol] + CC(=O)OCc1ccccc1
[2], Capillary tube (Ostwald / Ubbelohde) method
Conditions	viscosity [mPa·s]
288.15 K	1.337
298.15 K	1.105
308.15 K	0.921
318.15 K	0.771

[2]
Conditions	mass density [kg/m3]
288.15 K	793.6
298.15 K	785
308.15 K	776.31
318.15 K	767.44

CCC(=O)OCc1ccccc1 [benzyl propanoate]
[1]
Conditions	mass density [kg/m3]
288.15 K	1036.86
298.15 K	1027.6
308.15 K	1018.38
318.15 K	1009.15

[1], Capillary tube (Ostwald / Ubbelohde) method
Conditions	viscosity [mPa·s]
288.15 K	2.55
298.15 K	2.123
308.15 K	1.787
318.15 K	1.515

CCO [ethanol] + CCOC(=O)c1ccccc1O
[2]
Conditions	mass density [kg/m3]	viscosity [mPa·s]
288.15 K	793.6	1.337
298.15 K	785	1.105
308.15 K	776.31	0.921
318.15 K	767.44	0.771

COC(=O)c1ccccc1 [methyl benzoate]
[1]
Conditions	mass density [kg/m3]
288.15 K	1093.23
298.15 K	1083.92
308.15 K	1074.34
318.15 K	1064.62

[1], Capillary tube (Ostwald / Ubbelohde) method
Conditions	viscosity [mPa·s]
288.15 K	2.297
298.15 K	1.851
308.15 K	1.531
318.15 K	1.297

CCO [ethanol] + COC(=O)c1ccccc1
[2], Capillary tube (Ostwald / Ubbelohde) method
Conditions	viscosity [mPa·s]
288.15 K	1.337
298.15 K	1.105
308.15 K	0.921
318.15 K	0.771

[2]
Conditions	mass density [kg/m3]
288.15 K	793.6
298.15 K	785
308.15 K	776.31
318.15 K	767.44
